Laboratory results from ChEMBL document CHEMBL1130041, “Halogenated 4-(phenoxymethyl)piperidines as potential radiolabeled probes for sigma-1 receptors: in vivo evaluation of [123I]-1-(iodopropen-2-yl)-4-[(4-cyanophenoxy)methyl]pip eri dine” (J Med Chem, 1997).

Legend:
Rattus norvegicus [1] = species: Rattus norvegicus; assay: Biodistribution of [123I]-label in rat stomach was reported at 2 hr post injection. Value shown is %ID/g of tissue; type: ADME, organism-based; conditions: in vivo
Rattus norvegicus [2] = species: Rattus norvegicus; assay: Biodistribution of [123I]-label in rat thyroid was reported at 24 hr post injection. Value shown is %ID/organ; type: ADME, organism-based, Thyroid gland; conditions: in vivo
Rattus norvegicus [3] = species: Rattus norvegicus; assay: Biodistribution of [123I]-label in rat brain was reported at 2 hr post injection. Value shown is %ID/organ; type: ADME, organism-based; conditions: in vivo
Rattus norvegicus [4] = species: Rattus norvegicus; assay: Biodistribution of [123I]-label in rat lung was reported at 24 hr post injection. Value shown is %ID/g of tissue; type: ADME, organism-based; conditions: in vivo
Rattus norvegicus [5] = species: Rattus norvegicus; assay: Biodistribution of [123I]-label in rat blood was reported at 4 hr post injection. Value shown is %ID/g of tissue; type: ADME, organism-based; conditions: in vivo
Rattus norvegicus [6] = species: Rattus norvegicus; assay: Distribution of [123I]-label in rat brain (diencephalon) was reported at 20 min post injection. Value shown is %ID/g of tissue; type: ADME, organism-based; conditions: in vivo
Rattus norvegicus [7] = species: Rattus norvegicus; assay: Distribution of [123I]-label in rat brain (posterior cortex) was reported at 60 min post injection. Value shown is %ID/g of tissue; type: ADME, organism-based; conditions: in vivo, 1 h
Rattus norvegicus [8] = species: Rattus norvegicus; assay: Biodistribution of [123I]-label in rat muscle was reported at 24 hr post injection. Value shown is %ID/g of tissue; type: ADME, organism-based; conditions: in vivo
Rattus norvegicus [9] = species: Rattus norvegicus; assay: Biodistribution of [123I]-label in rat blood was reported at 0.33 hr post injection. Value shown is %ID/g of tissue; type: ADME, organism-based; conditions: in vivo
Rattus norvegicus [10] = species: Rattus norvegicus; assay: Biodistribution of [123I]-label in rat brain was reported at 1 hr post injection. Value shown is %ID/organ; type: ADME, organism-based; conditions: in vivo
Rattus norvegicus [11] = species: Rattus norvegicus; assay: Biodistribution of [123I]-label in rat lung was reported at 0.33 hr post injection. Value shown is %ID/g of tissue; type: ADME, organism-based; conditions: in vivo
Rattus norvegicus [12] = species: Rattus norvegicus; assay: Biodistribution of [123I]-label in rat lung was reported at 2 hr post injection. Value shown is %ID/g of tissue; type: ADME, organism-based; conditions: in vivo
Rattus norvegicus [13] = species: Rattus norvegicus; assay: Biodistribution of [123I]-label in rat spleen was reported at 1 hr post injection. Value shown is %ID/g of tissue; type: ADME, organism-based; conditions: in vivo
Rattus norvegicus [14] = species: Rattus norvegicus; assay: Biodistribution of [123I]-label in rat heart was reported at 1 hr post injection. Value shown is %ID/g of tissue; type: ADME, organism-based; conditions: in vivo
Rattus norvegicus [15] = species: Rattus norvegicus; assay: Biodistribution of [123I]-label in rat stomach was reported at 4 hr post injection. Value shown is %ID/g of tissue; type: ADME, organism-based; conditions: in vivo
Rattus norvegicus [16] = species: Rattus norvegicus; assay: Biodistribution of [123I]-label in rat heart was reported at 24 hr post injection. Value shown is %ID/g of tissue; type: ADME, organism-based; conditions: in vivo
Rattus norvegicus [17] = species: Rattus norvegicus; assay: Distribution of [123I]-label in rat brain (medulla pons) was reported at 60 min post injection. Value shown is %ID/g of tissue; type: ADME, organism-based; conditions: in vivo, 1 h
Rattus norvegicus [18] = species: Rattus norvegicus; assay: Biodistribution of [123I]-label in rat liver was reported at 24 h post injection. Value shown is %ID/g of tissue; type: ADME, organism-based; conditions: in vivo
Rattus norvegicus [19] = species: Rattus norvegicus; assay: Biodistribution of [123I]-label in rat thyroid was reported at 4 hr post injection. Value shown is %ID/organ; type: ADME, organism-based, Thyroid gland; conditions: in vivo
Rattus norvegicus [20] = species: Rattus norvegicus; assay: Biodistribution of [123I]-label in rat muscle was reported at 4 hr post injection. Value shown is %ID/g of tissue; type: ADME, organism-based; conditions: in vivo
Rattus norvegicus [21] = species: Rattus norvegicus; assay: Biodistribution of [123I]-label in rat brain was reported at 0.33 hr post injection. Value shown is %ID/g of tissue; type: ADME, organism-based; conditions: in vivo
Rattus norvegicus [22] = species: Rattus norvegicus; assay: Biodistribution of [123I]-label in rat intestine was reported at 1 hr post injection. Value shown is %ID/g of tissue; type: ADME, organism-based; conditions: in vivo
Rattus norvegicus [23] = species: Rattus norvegicus; assay: Distribution of [123I]-label in rat brain (frontal cortex) was reported at 20 min post injection. Value shown is %ID/g of tissue; type: ADME, organism-based; conditions: in vivo
Rattus norvegicus [24] = species: Rattus norvegicus; assay: Biodistribution of [123I]-label in rat thyroid was reported at 2 hr post injection. Value shown is %ID/organ; type: ADME, organism-based, Thyroid gland; conditions: in vivo
Rattus norvegicus [25] = species: Rattus norvegicus; assay: Biodistribution of [123I]-label in rat intestine was reported at 0.33 hr post injection. Value shown is %ID/g of tissue; type: ADME, organism-based; conditions: in vivo
Rattus norvegicus [26] = species: Rattus norvegicus; assay: Distribution of [123I]-label in rat brain (hippocampus) was reported at 60 min post injection. Value shown is %ID/g of tissue; type: ADME, organism-based; conditions: in vivo, 1 h
Rattus norvegicus [27] = species: Rattus norvegicus; assay: Distribution of [123I]-label in rat brain (frontal cortex) was reported at 60 min post injection. Value shown is %ID/g of tissue; type: ADME, organism-based; conditions: in vivo, 1 h
Rattus norvegicus [28] = species: Rattus norvegicus; assay: Biodistribution of [123I]-label in rat blood was reported at 2 hr post injection. Value shown is %ID/g of tissue; type: ADME, organism-based; conditions: in vivo
Rattus norvegicus [29] = species: Rattus norvegicus; assay: Biodistribution of [123I]-label in rat intestine was reported at 24 hr post injection. Value shown is %ID/g of tissue; type: ADME, organism-based; conditions: in vivo
Rattus norvegicus [30] = species: Rattus norvegicus; assay: Biodistribution of [123I]-label in rat spleen was reported at 4 hr post injection. Value shown is %ID/g of tissue; type: ADME, organism-based; conditions: in vivo
Rattus norvegicus [31] = species: Rattus norvegicus; assay: Biodistribution of [123I]-label in rat brain was reported at 24 hr post injection. Value shown is %ID/organ; type: ADME, organism-based; conditions: in vivo
Rattus norvegicus [32] = species: Rattus norvegicus; assay: Biodistribution of [123I]-label in rat heart was reported at 0.33 hr post injection. Value shown is %ID/g of tissue; type: ADME, organism-based; conditions: in vivo
Rattus norvegicus [33] = species: Rattus norvegicus; assay: Biodistribution of [123I]-label in rat liver was reported at 1 hr post injection. Value shown is %ID/g of tissue; type: ADME, organism-based; conditions: in vivo
Rattus norvegicus [34] = species: Rattus norvegicus; assay: Biodistribution of [123I]-label in rat stomach was reported at 0.33 hr post injection. Value shown is %ID/g of tissue; type: ADME, organism-based; conditions: in vivo

Compound N#Cc1ccc(OCC2CCN(C/C=C/I)CC2)cc1 has an ID/g (Rattus norvegicus [1]) of 0.3%, an ID (Rattus norvegicus [2]) of 1.19% and an ID (Rattus norvegicus [3]) of 2.01%. For the same compound, the ID/g (Rattus norvegicus [4]) was 0.79%, the ID/g (Rattus norvegicus [5]) was 0.02% and the ID/g (Rattus norvegicus [6]) was 1.03%. For the same compound, the ID/g (Rattus norvegicus [7]) was 1.51%, the ID/g (Rattus norvegicus [8]) was 0.09% and the ID/g (Rattus norvegicus [9]) was 0.05%. It also gave an ID (Rattus norvegicus [10]) of 1.96%, an ID/g (Rattus norvegicus [11]) of 6.59% and an ID/g (Rattus norvegicus [12]) of 3.75%. The ID/g (Rattus norvegicus [13]) was 0.92%, the ID/g (Rattus norvegicus [14]) was 1.21% and the ID/g (Rattus norvegicus [15]) was 0.27%. It also gave an ID/g (Rattus norvegicus [16]) of 0.18%, an ID/g (Rattus norvegicus [17]) of 1% and an ID/g (Rattus norvegicus [18]) of 0.55%. The ID (Rattus norvegicus [19]) was 0.34%, the ID/g (Rattus norvegicus [20]) was 0.2% and the ID/g (Rattus norvegicus [21]) was 1.06%. The ID/g (Rattus norvegicus [22]) was 0.82%, the ID/g (Rattus norvegicus [23]) was 1.28% and the ID (Rattus norvegicus [24]) was 0.27%. It also gave an ID/g (Rattus norvegicus [25]) of 0.54%, an ID/g (Rattus norvegicus [26]) of 1.06% and an ID/g (Rattus norvegicus [27]) of 1.29%. For the same compound, the ID/g (Rattus norvegicus [28]) was 0.03%, the ID/g (Rattus norvegicus [29]) was 0.74% and the ID/g (Rattus norvegicus [30]) was 0.93%. For the same compound, the ID (Rattus norvegicus [31]) was 1.61%, the ID/g (Rattus norvegicus [32]) was 1.25% and the ID/g (Rattus norvegicus [33]) was 0.45%. For the same compound, the ID/g (Rattus norvegicus [34]) was 0.46%.
